Results on 5 molecules are retold here after US10708263B2, “Salts and pharmaceutical compositions thereof for the treatment of inflammatory disorders” (Galapagos N.V., priority 2014, dated 2020).

≈ marks a conversion by molar mass, not a printed value. Counter-ions that a name gives are not always drawn. Bounds are passed on as bounds.

The nature of data set [1]: Thermodynamic aqueous solubility by HPLC. The format is physicochemical. As to conditions: salt from Protocol 4.
A short description of data set [2]: Salt stability and hygroscopicity evaluation. Conditions: for stability of the salt: salt from Protocol 4, XRPD analysis; for hygroscopicity of the salt: salt from Protocol 4. The format is physicochemical.
Data set [3] in a line: Dog bioavailability study. Format: in vivo, beagle dogs. How it is done:
The dogs are not fasted before dosing, and have free access to water. Every day of the treatment, a half food ration is provided after the T0 blood sampling, 8 to 17 min before treatment, and the second half ration is given just after dosing or 1 h after treatment for period 2. A 3 days washout period is ensured between treatments.
The capsule composition is described in Table XX below.
The capsules are administered orally with water (5-10 mL), to provide good oesophageal transit. Each animal is checked at least once daily.
Blood is collected from the jugular vein into lithium heparinised tubes at T0 (before food administration) and then at 1 h, 2 h, 4 h, 6 h, 8 h, 10 h, and 24 h post treatment.
Plasma is then obtained from blood by centrifugation (2500 g for 10 min at 4° C.), and stored at −20° C. until analysis.
After vortex mixing and centrifugation at 4° C., the supernatants are diluted with a 0.5 volume of HPLC grade water in a midi-eppendorf 96-well plate. The plate is sealed and shaken to ensure sample homogeneity prior to analysis.
Pharmacokinetic analysis is performed using WinNonlin™ software version 5.3, using concentrations from individual animals. Non-compartmental analysis is applied to determine the PK parameters (Cmax, Tmax, AUC0-last, t1/2, etc. . . . )
Concentrations below the limit of detection are set to zero for descriptive statistics and PK parameter calculations.

Data set [4] is described as follows: Solubility study in different solvents. The format is physicochemical. How it is done: The supersaturated solution is then filtered and the concentration of product in the filtrate is determined using UV-spectrometry.
In water, the influence of the pH is adjusted to pH 2, pH 7, and pH 9. HCl and NaOH are used to adjust the pH.

The subject of data set [5] is MMP13 levels in human chondrosarcoma cell line SW1353. Put plainly: cells. Conditions: SW1353, 48 h, read-out: OSM/IL-1β signaling EC50.
Method: The cells are seeded in 96 well plates at 15,000 cells/well in a volume of 120 μL DMEM (Invitrogen) containing 10% (v/v) FBS and 1% penicillin/streptomycin (InVitrogen) incubated at 37° C./5% CO2. Cells are preincubated with 15 μL of compound in M199 medium with 2% DMSO 1 hr before triggering with 15 μL OSM and IL-1P to reach 25 ng/mL OSM and 1 ng/mL IL-1β, and MMP13 levels are measured in conditioned medium 48 h after triggering. MMP13 activity is measured using an antibody capture activity assay. For this purpose, 384 well plates (NUNC, 460518, MaxiSorb black) are coated with 35 μL of a 1.5 μg/mL anti-human MMP13 antibody (R&D Systems, MAB511) solution for 24 hrs at 4° C. After washing the wells 2 times with PBS+0.05% Tween, the remaining binding sites are blocked with 100 μL 5% non-fat dry milk (Santa Cruz, sc-2325, Blotto) in PBS for 24 hr at 4° C. […] After incubation for 24 hrs at 37° C. fluorescence of the converted substrate is measured in a Perkin Elmer Wallac EnVision 2102 Multilabel Reader (wavelength excitation: 320 nm, wavelength emission: 405 nm). Percentage inhibition=((fluorescence determined in the presence of vehicle−fluorescence determined for sample with test compound present) divided by (fluorescence determined in the presence of vehicle−fluorescence determined for sample without trigger))*100.
Where [6] appears, read: oral capsules, on average and at the 2 capsule strengths, FIG. 10.

Turning to `O=C(Nc1nc2cccc(-c3ccc(CN4CCS(=O)(=O)CC4)cc3)n2n1)C1CC1.O=C(O)/C=C\C(=O)O` [Compound 1 maleic acid salt], the solubility in data set [1] (water) stood at 400 µg/mL. In data set [2], the “stability of the salt” value was “stable”.

For `Cl.O.O.O.O=C(Nc1nc2cccc(-c3ccc(CN4CCS(=O)(=O)CC4)cc3)n2n1)C1CC1` [Compound 1.HCl.3H2O], in data set [3] (setting [6]), the “in vivo exposure compared with Compound 1” value is “improved exposure” and the “rate of absorption compared with Compound 1” value is listed as “more rapidly absorbed”. This molecule also had a solubility in data set [4] (0.005M HCl, 20° C.) of 3100 µg/mL.

For the molecule `O=C(O)/C=C\C(=O)O` [Compound 1 maleic acid salt], the “hygroscopicity of the salt” value in data set [2] is listed as “non-hygroscopic”.

Take `O=C(Nc1nc2cccc(-c3ccc(CN4CCS(=O)(=O)CC4)cc3)n2n1)C1CC1` [Compound 1, cyclopropanecarboxylic acid {5-[4-(1,1-dioxo-thiomorpholin-4-ylmethyl)-phenyl]-[1,2,4]triazolo[1,5-a]pyridin-2-yl}-amide]: the EC50 in data set [5] amounted to 2240 nM. In addition, in data set [3] (male, beagle, plasma, 10 mg/kg, single oral administration, range over both forms and both capsule strengths), the half-life fell in the range of 4.43 to 8.96 h. Moreover, the solubility in data set [4] (0.01M HCl + 2.0% Tweet 80 (so in the source); presumably Tween 80), pH 2, aqueous with cosolvent or surfactant or cyclodextrin, thermodynamic from solid, 0.01M HCl + 2.0% Tweet 80, 20° C., read-out: Solubility) came out at 313 µg/mL; in data set [4] (aqueous with cosolvent or surfactant or cyclodextrin, thermodynamic from solid, Acetonitrile/water (1/1), 20° C., read-out: Solubility) it was 1570 µg/mL (≈ 3690 µM); in data set [4] (aqueous with cosolvent or surfactant or cyclodextrin, thermodynamic from solid, HP-β-CD 40% pH 2, 20° C., read-out: Solubility), 577 µg/mL (≈ 1360 µM); in data set [4] (aqueous with cosolvent or surfactant or cyclodextrin, thermodynamic from solid, HP-β-CD 40% pH 4, 20° C., read-out: Solubility) it was 520 µg/mL (≈ 1220 µM); in data set [4] (aqueous with cosolvent or surfactant or cyclodextrin, thermodynamic from solid, Water/ethanol 1/1, 20° C., read-out: Solubility), 327 µg/mL (≈ 768 µM); in data set [4] (organic solvent or mixture, thermodynamic from solid, Acetone, 20° C., read-out: Solubility), 420 µg/mL (≈ 987 µM). Besides, the solubility is 605 µg/mL (≈ 1420 µM) in data set [4] (organic solvent or mixture, thermodynamic from solid, Acetonitrile, 20° C., read-out: Solubility); 3110 µg/mL (≈ 7310 µM) in data set [4] (organic solvent or mixture, thermodynamic from solid, Acetonitrile/water (4/1), 20° C., read-out: Solubility); 5660 µg/mL (≈ 13300 µM) in data set [4] (organic solvent or mixture, thermodynamic from solid, Dichloromethane, 20° C., read-out: Solubility); 151 µg/mL (≈ 355 µM) in data set [4] (organic solvent or mixture, thermodynamic from solid, Ethanol, 20° C., read-out: Solubility); 432 µg/mL (≈ 1020 µM) in data set [4] (organic solvent or mixture, thermodynamic from solid, Methanol, 20° C., read-out: Solubility); 1530 µg/mL (≈ 3600 µM) in data set [4] (organic solvent or mixture, thermodynamic from solid, PEG400, 20° C., read-out: Solubility). Besides, the solubility in data set [4] (organic solvent or mixture, thermodynamic from solid, Propanol, 20° C., read-out: Solubility) is 134 µg/mL (≈ 315 µM); in data set [4] (organic solvent or mixture, thermodynamic from solid, Propylene glycol, 20° C., read-out: Solubility) it was 464 µg/mL (≈ 1090 µM); in data set [4] (organic solvent or mixture, thermodynamic from solid, Tetrahydrofuran, 20° C., read-out: Solubility), 740 µg/mL (≈ 1740 µM); in data set [4] (organic solvent or mixture, thermodynamic from solid, t-butyl methyl ether, 20° C., read-out: Solubility), less than 2.39 µg/mL; in data set [4] (pH 2, simulated gastric fluid, thermodynamic from solid, 0.01M HCl, 20° C., read-out: Solubility) it was 288 µg/mL (≈ 677 µM); in data set [4] (pH adjusted with HCl/NaOH, aqueous buffer, thermodynamic from solid, Water pH 2, 20° C., read-out: Solubility) it was 291 µg/mL (≈ 684 µM). The solubility in data set [4] (pH adjusted with HCl/NaOH, aqueous buffer, thermodynamic from solid, Water pH 7, 20° C., read-out: Solubility) was 4.32 µg/mL (≈ 10.2 µM); in data set [4] (pH adjusted with HCl/NaOH, aqueous buffer, thermodynamic from solid, Water pH 9, 20° C., read-out: Solubility) it was 4.29 µg/mL (≈ 10.1 µM); in data set [4] (thermodynamic from solid, Water (purified), 20° C., read-out: Solubility), 3.84 µg/mL (≈ 9.02 µM).

Regarding `Cl.O=C(Nc1nc2cccc(-c3ccc(CN4CCS(=O)(=O)CC4)cc3)n2n1)C1CC1` [Compound 1 HCl salt], the aqueous solubility in data set [1] stood at 1900 µg/mL. Besides, in data set [2], the “hygroscopicity of the salt” value is recorded as “non-hygroscopic” and the “stability of the salt” value was “stable”.

The term solubility denotes the concentration that dissolves in the medium under given conditions. Broadly, the half-life is how long it takes for the measured level to halve. Low readings indicate rapid decline, high ones slow decline. By aqueous solubility is commonly meant the concentration that dissolves in the medium under given conditions.
